Results taken from publication PMC9603561, “Anticoagulants as Potential SARS-CoV-2 M^pro Inhibitors for COVID-19 Patients: In Vitro, Molecular Docking, Molecular Dynamics, DFT, and SAR Studies” (International Journal of Molecular Sciences, 2022).
Where two headings read alike, the source gives them in different places.

Columns and labels:
[1] = target: T1, SARS-CoV-2 M^pro enzyme (Severe acute respiratory syndrome coronavirus 2, UniProt P0DTD1); experiment: SARS-CoV-2 M^pro inhibitory assay (3CL Protease Assay Kit); assay type: biochemical
T1 construct: The 3CL Protease Assay Kit was used; purchased

[2] = tested on: Vero E6 cells; experiment: MTT cytotoxicity assay; assay type: cell-based; conditions: Vero E6 cells, MTT, 24 h treatment; read-out: Cytotoxicity Concentration (CC50)
Procedure: (§1) Half of the maximal cytotoxic concentrations (CC50) were assessed to obtain the exact concentration of a compound that caused a rupture to 50% of cells after being treated with variant doses from the compounds to calculate the safety index (SI) = CC50/IC50 for each compound. The assay was performed through stock solution preparation of the target compounds in DMSO/ddH2O (for those in powder form). However, those in solution form were used directly. The prepared solutions were further diluted with DMEM by attaining the working solutions. […] Shortly, 96 well-plates were utilized for cell seeding and incubated at 37 °C in 5% CO2 for 24 h afterward. After one day, the incubated cells were subjected to different concentrations in triplicates of the investigated compounds. After another 24 h, the supernatant was dismissed, and sterile 1x phosphate buffer saline (PBS) was used for cell monolayer washing in triplicates. Thus, 20 µL of 5 mg/mL stock solution was added to each well and then incubated at 37 °C, followed by a medium aspiration for 4 h. So, the formed formazan crystals were dissolved by 200 µL isopropyl alcohol or DMSO. The formazan solution absorbance was measured at 540 nm (λmax) using a multi-well plate reader, while the reference wavelength was 620 nm. The CC50 of each target compound was measured employing nonlinear regression analysis of GraphPad Prism software.

[3] = tested on: SARS-CoV-2 (hCoV-19/Egypt/NRC-03/2020); experiment: Crystal violet assay, SARS-CoV-2 inhibitory assay (cell-based); conditions: Vero E6 cells, crystal violet CPE readout, read-out: Inhibitory Concentration (IC50) against SARS-CoV-2
[4] = MTT cytotoxicity assay; assay type: cell-based; conditions: African green monkey
Procedure: as §1

[5] = fluorogenic substrate, triplicate
[6] = Severe acute respiratory syndrome coronavirus 2, Vero C1008, 72 h

Compound	IC50 [1, 5]	IC50 ([1]; read-out: SARS-CoV-2 M^pro IC50, fluorogenic substrate, triplicate)	CC50 [2]	IC50 ([3]; 72 h)	CC50 at 24 h [4]	IC50 [3, 6]	CC50 at 24 h ([4]; Vero E6 cells, MTT, 24 h treatment, read-out: Cytotoxicity Concentration (CC50))
CCC[C@@]1(CCc2ccccc2)CC(O)=C([C@H](CC)c2cccc(NS(=O)(=O)c3ccc(C(F)(F)F)cn3)c2)C(=O)O1 [tipranavir]	7.38 µM						
heparin		153 µM	262 µM	106 µM			
CO[C@H]1O[C@H](COS(=O)(=O)O)[C@@H](O[C@@H]2O[C@@H](C(=O)O)[C@@H](O[C@H]3O[C@H](COS(=O)(=O)O)[C@@H](O[C@@H]4O[C@H](C(=O)O)[C@@H](O[C@H]5O[C@H](COS(=O)(=O)O)[C@@H](O)[C@H](O)[C@H]5NS(=O)(=O)O)[C@H](O)[C@H]4O)[C@H](OS(=O)(=O)O)[C@H]3NS(=O)(=O)O)[C@H](O)[C@H]2OS(=O)(=O)O)[C@H](O)[C@H]1NS(=O)(=O)O [Fondaparinux sodium, fondaparinux sodium]	2.36 µM			8.6 µM	152 µM	8.69 µM	
CCCSc1nc(N[C@@H]2C[C@H]2c2ccc(F)c(F)c2)c2nnn([C@@H]3C[C@H](OCCO)[C@@H](O)[C@H]3O)c2n1 [Ticagrelor, ticagrelor]	47.5 µM				142 µM	5.6 µM	
[H]/N=C(/N)c1ccc(NCc2nc3cc(C(=O)N(CCC(=O)O)c4ccccn4)ccc3n2C)cc1 [Dabigatran, dabigatran]	10.6 µM			9.4 µM		9.45 µM	142 µM
